Measurements reported in patent EP2818472A1, “Imidazo[4,5-c]pyridine and pyrrolo[3,2-c]pyridine compounds as G-protein-coupled receptor kinase 5 (GRK5) modulators” (Max-Planck-Gesellschaft zur Förderung der Wissenschaften …, priority 2013, dated 2014).

What follows are compounds tested on beta-TC6 cells (assay: Insulin HTRF assay (relative activity Ar) in beta-TC6 cells). Conditions: Mus musculus, Beta-TC6, 4 h, insulin HTRF, supernatant of beta-TC6 cells, incubation with test compound at 37°C for 2, 3, 4h; read-out: Ar (relative activity).
Format: cell-based, mouse
In short: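 beta-TC6 cells (15k/well, seeded 24 or 48 h) washed, then exposed to compound in induction buffer (0.5% DMSO final) for 2, 3 or 4 h at 37°C.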
In the case of CC(=O)Nc1ccc(Nc2nccc3[nH]c(-c4cccnc4)cc23)cc1 [Compound 231, N-[4-[[2-(3-pyridyl)-1H-pyrrolo[3,2-c]pyridin-4-yl]amino]phenyl]acetamide], the Emax is reported as > 100%.
c1cncc(-c2cc3c(Nc4ccc5c(c4)OCCO5)nccc3[nH]2)c1 [Compound 232, N-(2,3-dihydro-1,4-benzodioxin-6-yl)-2-(3-pyridyl)-1H-pyrrolo[3,2-c]pyridin-4-amine] gave an Emax of 50 to 100%.
COc1ccc(Nc2nccc3[nH]c(-c4cccnc4)cc23)cn1 [Compound 233, N-(6-methoxy-3-pyridyl)-2-(3-pyridyl)-1H-pyrrolo[3,2-c]pyridin-4-amine] was tested, and the Emax was 50 to 100%.
For c1cncc(Nc2nccc3[nH]c(-c4cccnc4)cc23)c1 [Compound 234, N,2-bis(3-pyridyl)-1H-pyrrolo[3,2-c]pyridin-4-amine], the Emax was 50 to 100%.
CN1CCN(c2ccc(Nc3nccc4[nH]c(-c5cccnc5)cc34)cc2)CC1 [Compound 235, N-[4-(4-methylpiperazin-1-yl)phenyl]-2-(3-pyridyl)-1H-pyrrolo[3,2-c]pyridin-4-amine] was tested, and the Emax was 50 to 100%.
COc1ccc(Nc2nccc3[nH]c(-c4cccnc4)cc23)cc1O [Compound 236, 2-methoxy-5-[[2-(3-pyridyl)-1H-pyrrolo[3,2-c]pyridin-4-yl]amino]phenol] was tested, and the Emax was 50 to 100%.
With COc1cc(Nc2nccc3c2cc(-c2cccnc2)n3C)cc(OC)c1OC [Compound 237, 1-methyl-2-(3-pyridyl)-N-(3,4,5-trimethoxyphenyl)pyrrolo[3,2-c]pyridin-4-amine] the Emax was > 100%.
With COc1ccc(Nc2nccc3c2cc(-c2cccnc2)n3C)cc1OC [Compound 238, N-(3,4-dimethoxyphenyl)-1-methyl-2-(3-pyridyl)pyrrolo[3,2-c]pyridin-4-amine] the Emax was 30 to 50%.
For CN(C)c1cccc(Nc2nccc3c2cc(-c2cccnc2)n3C)c1 [Compound 239, N1,N1-dimethyl-N3-[1-methyl-2-(3-pyridyl)pyrrolo[3,2-c]pyridin-4-yl]benzene-1,3-diamine], the Emax was 30 to 50%.
Compound COc1ccc(Nc2nccc3c2cc(-c2cccnc2)n3C)c(C)c1 [Compound 240, N-(4-methoxy-2-methyl-phenyl)-1-methyl-2-(3-pyridyl)pyrrolo[3,2-c]pyridin-4-amine] has an Emax of 0 to 30%.
Cc1cccc(Nc2nccc3c2cc(-c2cccnc2)n3C)c1 [Compound 241, 1-methyl-N-(m-tolyl)-2-(3-pyridyl)pyrrolo[3,2-c]pyridin-4-amine] was tested, and the Emax was 0 to 30%.
In the case of Cn1c(-c2cccnc2)cc2c(Nc3ccc(F)cc3)nccc21 [Compound 242, N-(4-fluorophenyl)-1-methyl-2-(3-pyridyl)pyrrolo[3,2-c]pyridin-4-amine], the Emax is reported as 0 to 30%.
Cn1c(-c2cccnc2)cc2c(Nc3cccc(NS(C)(=O)=O)c3)nccc21 [Compound 244, N-[3-[[1-methyl-2-(3-pyridyl)pyrrolo[3,2-c]pyridin-4-yl]amino]phenyl]methanesulfonamide] was tested, and the Emax was 50 to 100%.
CC(=O)Nc1cccc(Nc2nccc3c2cc(-c2cccnc2)n3C)c1 [Compound 245, N-[3-[[1-methyl-2-(3-pyridyl)pyrrolo[3,2-c]pyridin-4-yl]amino]phenyl]acetamide] was tested, and the Emax was 50 to 100%.
With Cn1cc(-c2cc3c(Nc4ccc(S(C)(=O)=O)cc4)nccc3[nH]2)cn1 [Compound 246, 2-(1-methylpyrazol-4-yl)-N-(4-methylsulfonylphenyl)-1H-pyrrolo[3,2-c]pyridin-4-amine] the Emax was > 100%.
In the case of Cn1cc(-c2cc3c(Nc4cccnc4)nccc3n2C)cn1 [Compound 247, 1-methyl-2-(1-methylpyrazol-4-yl)-N-(3-pyridyl)pyrrolo[3,2-c]pyridin-4-amine], the Emax is reported as > 100%.
CC(=O)N(C)c1cccc(-c2cc3c(Nc4ccc(OC(F)(F)F)cc4)nccc3n2C)c1 [Compound 248, N-methyl-N-[3-[1-methyl-4-[4-(trifluoromethoxy)anilino]pyrrolo[3,2-c]pyridin-2-yl]phenyl]acetamide] was tested, and the Emax was 0 to 30%.
In the case of CC(=O)Nc1ccc(Nc2nccc3[nH]c(-c4ccsc4)cc23)cc1 [Compound 249, N-[4-[[2-(3-thienyl)-1H-pyrrolo[3,2-c]pyridin-4-yl]amino]phenyl]acetamide], the Emax is reported as > 100%.
For NC(=O)c1ccc(Nc2nccc3[nH]c(-c4ccsc4)cc23)cc1 [Compound 250, 4-[[2-(3-thienyl)-1H-pyrrolo[3,2-c]pyridin-4-yl]amino]benzamide], the Emax was 50 to 100%.
COc1ccc(Nc2nccc3[nH]c(-c4ccsc4)cc23)c(OC)c1 [Compound 251, N-(2,4-dimethoxyphenyl)-2-(3-thienyl)-1H-pyrrolo[3,2-c]pyridin-4-amine] showed an Emax of 30 to 50%.
Work on c1cc2[nH]c(-c3ccsc3)cc2c(Nc2ccc3c(c2)OCCO3)n1 [Compound 252, N-(2,3-dihydro-1,4-benzodioxin-6-yl)-2-(3-thienyl)-1H-pyrrolo[3,2-c]pyridin-4-amine] yielded an Emax of 50 to 100%.
COc1ccc(Nc2nccc3[nH]c(-c4ccsc4)cc23)cc1OC [Compound 253, N-(3,4-dimethoxyphenyl)-2-(3-thienyl)-1H-pyrrolo[3,2-c]pyridin-4-amine] gave an Emax of 50 to 100%.
Compound COc1ccc(Nc2nccc3[nH]c(-c4ccsc4)cc23)cn1 [Compound 254, N-(6-methoxy-3-pyridyl)-2-(3-thienyl)-1H-pyrrolo[3,2-c]pyridin-4-amine] has an Emax of 50 to 100%.
Compound c1cncc(Nc2nccc3[nH]c(-c4ccsc4)cc23)c1 [Compound 255, N-(3-pyridyl)-2-(3-thienyl)-1H-pyrrolo[3,2-c]pyridin-4-amine] has an Emax of 50 to 100%.
With c1cc2[nH]c(-c3ccsc3)cc2c(Nc2ccc(N3CCOCC3)cc2)n1 [Compound 256, N-(4-morpholinophenyl)-2-(3-thienyl)-1H-pyrrolo[3,2-c]pyridin-4-amine] the Emax was 50 to 100%.
For CN1CCN(c2ccc(Nc3nccc4[nH]c(-c5ccsc5)cc34)cc2)CC1 [Compound 257, N-[4-(4-methylpiperazin-1-yl)phenyl]-2-(3-thienyl)-1H-pyrrolo[3,2-c]pyridin-4-amine], the Emax was 30 to 50%.
c1cc(Nc2nccc3[nH]c(-c4ccsc4)cc23)ccn1 [Compound 258, N-(4-pyridyl)-2-(3-thienyl)-1H-pyrrolo[3,2-c]pyridin-4-amine] was tested, and the Emax was > 100%.
COc1ccc(Nc2nccc3[nH]c(-c4ccsc4)cc23)cc1 [Compound 259, N-(4-methoxyphenyl)-2-(3-thienyl)-1H-pyrrolo[3,2-c]pyridin-4-amine] gave an Emax of 50 to 100%.
c1ccc(Nc2nccc3[nH]c(-c4ccsc4)cc23)nc1 [Compound 260, N-(2-pyridyl)-2-(3-thienyl)-1H-pyrrolo[3,2-c]pyridin-4-amine] gave an Emax of 50 to 100%.
COC(=O)c1ccc(Nc2nccc3[nH]c(-c4ccsc4)cc23)cc1 [Compound 261, methyl 4-[[2-(3-thienyl)-1H-pyrrolo[3,2-c]pyridin-4-yl]amino]benzoate] gave an Emax of 0 to 30%.
CS(=O)(=O)c1cccc(Nc2nccc3[nH]c(-c4ccsc4)cc23)c1 [Compound 262, N-(3-methylsulfonylphenyl)-2-(3-thienyl)-1H-pyrrolo[3,2-c]pyridin-4-amine] was tested, and the Emax was 50 to 100%.
Work on c1cc2[nH]c(-c3ccsc3)cc2c(Nc2ccc3c(c2)OCO3)n1 [Compound 263, N-(1,3-benzodioxol-5-yl)-2-(3-thienyl)-1H-pyrrolo[3,2-c]pyridin-4-amine] yielded an Emax of 50 to 100%.
In the case of Oc1cccc(Nc2nccc3[nH]c(-c4ccsc4)cc23)c1 [Compound 264, 3-[[2-(3-thienyl)-1H-pyrrolo[3,2-c]pyridin-4-yl]amino]phenol], the Emax is reported as 30 to 50%.
